Values quoted from earlier work in paper PMC9834611 (Pharmacology Research & Perspectives, 2023).

Tests used:
[1] = cited from earlier work
CYP3A4 = system: CYP3A4; design: method as in PMID 25141173; details: cited from earlier work
ABCB1 = system: ABCB1; design: method as in PMID 11770010; details: Caco‐2 cell lines; cited from earlier work

SMILES | LD50 compared with parent VBL [1] | increase in CYP3A4 mRNA expression (CYP3A4) | effect on CYP3A4 (CYP3A4; human hepatocytes) | effect on ABCB1 (ABCB1)
CC[C@]1(O)C[C@@H]2CN(CCc3c([nH]c4ccccc34)[C@@](C(=O)OC)(c3cc4c(cc3OC)N(C)[C@H]3[C@@](O)(C(=O)OC)[C@H](O)[C@]5(CC)C=CCN6CC[C@]43[C@@H]65)C2)C1 [4‐deacetylvinblastine] | lower than that of the parent | – | – | –
COc1ccc2[nH]c([S+]([O-])Cc3ncc(C)c(OC)c3C)nc2c1 (stereo not shown) [Omeprazole] | – | twofold | inducer | inhibitor
